Assay results reported in patent US12624034B2, “Non-covalent modifiers of AKT1 and uses thereof” (Terremoto Biosciences, Inc., priority 2023, dated 2026).
pIC50: −log10 of the molar value.

Experiments:
AKT1 WT = biological target: T1, AKT1 WT (Homo sapiens, UniProt P31749); test: Live cell AKT1 WT target engagement by NanoBRET competitive probe displacement in HEK293 cells; assay type: binding; details: NanoBRET live cell target engagement, HEK293 cells, 2 h at 37° C.; read-out: AKT1 WT IC50
T1 construct: expressed in transfected cells; host or cells: HEK293

AKT2 = biological target: T2, AKT2 (Homo sapiens, UniProt P31751); test: Live cell AKT2 target engagement by NanoBRET competitive probe displacement in HEK293 cells; assay type: binding; details: NanoBRET live cell target engagement, HEK293 cells, 2 h at 37° C.; read-out: AKT2 IC50
T2 construct: expressed in transfected cells; host or cells: HEK293
T2 sequence (P31751 whole entry): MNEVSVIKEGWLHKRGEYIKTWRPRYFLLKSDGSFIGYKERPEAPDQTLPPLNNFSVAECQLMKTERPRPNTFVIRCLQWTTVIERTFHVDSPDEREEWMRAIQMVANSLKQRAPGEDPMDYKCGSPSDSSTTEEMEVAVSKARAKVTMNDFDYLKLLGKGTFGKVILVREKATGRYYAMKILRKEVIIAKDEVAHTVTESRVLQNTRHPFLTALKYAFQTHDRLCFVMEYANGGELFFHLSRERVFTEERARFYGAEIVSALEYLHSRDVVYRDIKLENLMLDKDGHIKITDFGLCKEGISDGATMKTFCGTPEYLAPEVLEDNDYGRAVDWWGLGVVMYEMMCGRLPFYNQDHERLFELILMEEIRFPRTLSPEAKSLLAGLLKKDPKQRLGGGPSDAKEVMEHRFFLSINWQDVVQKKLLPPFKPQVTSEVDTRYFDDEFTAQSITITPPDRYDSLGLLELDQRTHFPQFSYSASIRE

T1 sequence (P31749 whole entry): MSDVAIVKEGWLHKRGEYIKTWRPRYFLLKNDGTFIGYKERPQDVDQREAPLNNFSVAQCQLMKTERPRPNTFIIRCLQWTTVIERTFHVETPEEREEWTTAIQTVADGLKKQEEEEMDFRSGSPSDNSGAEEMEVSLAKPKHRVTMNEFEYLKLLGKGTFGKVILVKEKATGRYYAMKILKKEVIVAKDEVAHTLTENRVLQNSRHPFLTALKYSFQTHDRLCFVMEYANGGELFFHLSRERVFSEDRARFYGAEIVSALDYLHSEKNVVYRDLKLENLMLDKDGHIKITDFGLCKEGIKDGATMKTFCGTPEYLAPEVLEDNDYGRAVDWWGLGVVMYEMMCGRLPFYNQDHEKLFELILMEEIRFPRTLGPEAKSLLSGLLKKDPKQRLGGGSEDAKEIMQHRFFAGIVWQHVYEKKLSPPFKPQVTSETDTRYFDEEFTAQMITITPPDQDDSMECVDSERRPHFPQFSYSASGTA

Row | SMILES | pIC50 (AKT1 WT) | pIC50 (AKT2)
1 | Nc1ncccc1-c1nc2ccc(-n3cccn3)nc2n1-c1ccc2c(c1)CC[C@@H]2n1ccnc1 [Compound 273, (S)-3-(3-(1-(1H-imidazol-1-yl)-2,3-dihydro-1H-inden-5-yl)-5-(1H-pyrazol-1-yl)-3H-imidazo[4,5-b]pyridin-2-yl)pyridin-2-amine] | 7.94 | 6.78
2 | Nc1ncccc1-c1nc2ccc(-n3cccn3)nc2n1-c1ccc2c(c1)CC[C@@H]2NC(=O)c1ccc2ccnn2c1 [Compound 290] | 8.42 | 7.72
3 | Nc1ncccc1-c1nc2ccc(-n3cccn3)nc2n1-c1ccc2c(c1)CC[C@@H]2NC(=O)c1cnc2cccn2c1 [Compound 291] | 8.29 | 7.25
4 | CNC(=O)c1cccc(C(=O)N[C@H]2CCc3cc(-n4c(-c5cccnc5N)nc5ccc(-n6cccn6)nc54)ccc32)c1 [Compound 292] | 7.89 | 7.14
5 | Nc1ncccc1-c1nc2ccc(-n3cccn3)nc2n1-c1ccc2c(c1)CC[C@@H]2NC(=O)c1ccc(F)c(O)c1 [Compound 293] | 7.91 | 7.08
6 | CC(=O)Nc1c(F)cc(C(=O)N[C@H]2CCc3cc(-n4c(-c5cccnc5N)nc5ccc(-n6cccn6)nc54)ccc32)cc1F [Compound 294] | 8.28 | 7.54
7 | Nc1ncccc1-c1nc2ccc(-n3cccn3)nc2n1-c1ccc2c(c1)CC[C@@H]2NC(=O)c1ccnc(F)c1 [Compound 295] | 8.25 | 7.09
8 | Nc1ncccc1-c1nc2ccc(-n3cccn3)nc2n1-c1ccc2c(c1)CC[C@@H]2NC(=O)c1cnc(O)c(F)c1 [Compound 296] | 7.25 | 6.18
9 | Nc1ncccc1-c1nc2ccc(-n3cccn3)nc2n1-c1ccc2c(c1)CC[C@@H]2NC(=O)c1ccc(O)nc1 [Compound 297] | 6.79 | 5.37
10 | Nc1ncc(C(=O)N[C@H]2CCc3cc(-n4c(-c5cccnc5N)nc5ccc(-n6cccn6)nc54)ccc32)cc1F [Compound 298] | 8.15 | 7.29
11 | Cc1ccc(C(=O)N[C@H]2CC(F)(F)c3cc(-n4c(-c5cccnc5N)nc5ccc(-n6cccn6)nc54)ccc32)cn1 [Compound 299] | < 6.00 | < 5.00
12 | Cc1ccc(C(=O)N[C@H]2CCc3cc(-n4c(-c5cccnc5N)nc5ccc(-c6nc(C)cs6)nc54)ccc32)cn1 [Compound 300] | 8.48 | 8.07
13 | Cc1nccnc1C(=O)N[C@H]1CCc2cc(-n3c(-c4cccnc4N)nc4ccc(-c5ccn(C(F)F)n5)nc43)ccc21 [Compound 301] | 6.72 | 5.69
14 | Cc1csc(-c2ccc3nc(-c4cccnc4N)n(-c4ccc5c(c4)CC[C@@H]5NC(=O)c4nccnc4C)c3n2)n1 [Compound 302] | 7.68 | 6.34
15 | Cc1cnc(-c2ccc3nc(-c4cccnc4N)n(-c4ccc5c(c4)CC[C@@H]5n4ccnn4)c3n2)s1 [Compound 303] | 7.34 | 5.76
16 | Cc1cn([C@H]2CCc3cc(-n4c(-c5cccnc5N)nc5ccc(-n6cccn6)nc54)ccc32)nn1 [Compound 304] | 7.09 | 5.32
17 | Nc1ncccc1-c1nc2ccc(-n3cccn3)nc2n1-c1ccc2c(c1)CC[C@@H]2NCc1ccnc(OC(F)(F)F)c1 [Compound 305] | 7.49 | 5.94
18 | Nc1ncccc1-c1nc2ccc(-n3cccn3)nc2n1-c1ccc2c(c1)CC[C@@H]2NC(=O)c1ccn2nccc2n1 [Compound 306] | 7.46 | 6.88
19 | Nc1ncccc1-c1nc2ccc(-n3cccn3)nc2n1-c1ccc2c(c1)CC[C@@H]2NC(=O)c1cccc(O)c1 [Compound 307] | 7.97 | 6.91
20 | CNS(=O)(=O)c1ccc(C(=O)N[C@H]2CCc3cc(-n4c(-c5cccnc5N)nc5ccc(-n6cccn6)nc54)ccc32)cc1 [Compound 308] | 7.82 | 6.53
21 | CC(=O)Nc1ccc(C(=O)N[C@H]2CCc3cc(-n4c(-c5cccnc5N)nc5ccc(-n6cccn6)nc54)ccc32)cc1F [Compound 309] | 7.97 | 8.08
22 | Nc1ncccc1-c1nc2ccc(-n3cccn3)nc2n1-c1ccc2c(c1)CC[C@@H]2NC(=O)c1ccc(F)cc1 [Compound 310] | 7.66 | 6.45
23 | Nc1ccc(C(=O)N[C@H]2CCc3cc(-n4c(-c5cccnc5N)nc5ccc(-n6cccn6)nc54)ccc32)cn1 [Compound 311] | 7.72 | 6.72
24 | Cc1ccc(C(=O)N[C@H]2CCc3cc(-n4c(-c5cccnc5N)nc5ccc(-c6ncc(C)s6)nc54)ccc32)cn1 [Compound 314] | 7.98 | 7.15
25 | Nc1ncccc1-c1nc2ccc(-c3ccn(C(F)F)n3)nc2n1-c1ccc2c(c1)CC[C@@H]2n1ccnn1 [Compound 315] | 7.62 | 6.21
26 | Cc1csc(-c2ccc3nc(-c4cccnc4N)n(-c4ccc5c(c4)CC[C@@H]5n4ccnn4)c3n2)n1 [Compound 316] | 7.77 | 6.70

Row | SMILES | pIC50 (AKT1 WT) | pIC50 (AKT2)
27 | Nc1ncccc1-c1nc2ccc(-n3cccn3)nc2n1-c1ccc2c(c1)CC[C@@H]2NC(=O)c1ccnc2c1OC(F)(F)O2 [Compound 317] | 6.88 | 5.76
28 | COc1cc(C(=O)N[C@H]2CCc3cc(-n4c(-c5cccnc5N)nc5ccc(-n6cccn6)nc54)ccc32)nn1C(F)F [Compound 324] | 7.64 | 6.30
29 | Nc1ncccc1-c1nc2ccc(-n3cccn3)nc2n1-c1ccc2c(c1)CCC2n1cccn1 (centres unmarked) [Compound 325, 3-(3-(1-(1H-pyrazol-1-yl)-2,3-dihydro-1H-inden-5-yl)-5-(1H-pyrazol-1-yl)-3H-imidazo[4,5-b]pyridin-2-yl)pyridin-2-amine] | 6.92 | 5.37
30 | Nc1ncccc1-c1nc2ccc(-n3cccn3)nc2n1-c1ccc2c(c1)CC[C@@H]2n1cc(C(F)F)nn1 [Compound 326] | 7.74 | 5.88
31 | CC(=O)NCC#Cc1ccc2nc(-c3cccnc3N)n(-c3ccc4c(c3)CC[C@@H]4NC(=O)c3ccc(C)nc3)c2n1 [Compound 327] | 6.28 | 5.16
32 | Nc1ncccc1-c1nc2ccc(-n3cccn3)nc2n1-c1ccc2c(c1)CC[C@@H]2NC(=O)c1ccc2cccn2c1 [Compound 328] | 7.75 | 6.74
33 | N#Cc1cc(-n2ccc(F)n2)nc2c1nc(-c1cccnc1N)n2-c1ccc2c(c1)CC[C@@H]2NC(=O)c1ccc(C(F)F)nc1 [Compound 329] | 7.83 | 6.84
34 | Nc1ncccc1-c1nc2ccc(-n3cccn3)nc2n1-c1ccc2c(c1)CC[C@@H]2N1CCCC1 [Compound 330] | 7.26 | 5.92
35 | Nc1ncccc1-c1nc2ccc(-n3cccn3)nc2n1-c1ccc2c(c1)CC[C@@H]2NC(=O)c1cc(F)cc(F)c1 [Compound 331] | 7.72 | 7.38
36 | Nc1ncccc1-c1nc2ccc(-n3cccn3)nc2n1-c1ccc2c(c1)CC[C@@H]2NC(=O)c1cccc(F)c1 [Compound 332] | 8.12 | 7.22
37 | Nc1ncccc1-c1nc2ccc(-n3cccn3)nc2n1-c1ccc2c(c1)CC[C@@H]2NC(=O)c1ccccc1F [Compound 333] | 8.21 | 7.23
38 | COc1cc(F)cc(C(=O)N[C@H]2CCc3cc(-n4c(-c5cccnc5N)nc5ccc(-n6cccn6)nc54)ccc32)c1 [Compound 334] | 8.09 | 7.67
39 | COc1cccc(C(=O)N[C@H]2CCc3cc(-n4c(-c5cccnc5N)nc5ccc(-n6cccn6)nc54)ccc32)c1 [Compound 335] | 8.23 | 7.50
40 | COc1cc(C(=O)N[C@H]2CCc3cc(-n4c(-c5cccnc5N)nc5ccc(-n6cccn6)nc54)ccc32)ccc1F [Compound 336] | 7.75 | 6.52
41 | Nc1ncccc1-c1nc2ccc(-n3cccn3)nc2n1-c1ccc2c(c1)CC[C@@H]2NC(=O)c1ccc(F)c(Cl)c1 [Compound 337] | 8.06 | 7.09
42 | CN[C@H]1CCc2cc(-n3c(-c4cccnc4N)nc4ccc(-n5cccn5)nc43)ccc21 [Compound 339] | 6.90 | 5.29
43 | CN(C)[C@H]1CCc2cc(-n3c(-c4cccnc4N)nc4ccc(-n5cccn5)nc43)ccc21 [Compound 340] | 7.42 | 6.00
44 | Cc1ccc(C(=O)N[C@H]2CCc3cc(-n4c(-c5cccnc5N)nc5ccc(C#Cc6ncco6)nc54)ccc32)cn1 [Compound 341] | 6.41 | 5.55
45 | Nc1ncccc1-c1nc2ccc(-n3cccn3)nc2n1-c1ccc2c(c1)CC[C@@H]2N1CCCCC1 [Compound 342, (S)-3-(3-(1-(piperidin-1-yl)-2,3-dihydro-1H-inden-5-yl)-5-(1H-pyrazol-1-yl)-3H-imidazo[4,5-b]pyridin-2-yl)pyridin-2-amine] | 7.36 | 6.01
46 | Nc1ncccc1-c1nc2ccc(-n3cccn3)nc2n1-c1ccc2c(c1)CC[C@@H]2NC(=O)c1cc(F)c(F)c(F)c1 [Compound 343] | 7.78 | 6.62
47 | COc1cc(C(=O)N[C@H]2CCc3cc(-n4c(-c5cccnc5N)nc5ccc(-n6cccn6)nc54)ccc32)cc(F)n1 [Compound 344] | 8.10 | 7.71
48 | Nc1ncccc1-c1nc2ccc(-n3cccn3)nc2n1-c1ccc2c(c1)CC[C@@H]2n1nnc2ccccc21 [Compound 345] | 7.29 | 6.12
49 | Cc1ccc(C(=O)N[C@H]2CCc3cc(-n4c(-c5cccnc5N)nc5ccc(-n6cncn6)nc54)ccc32)cn1 [Compound 346] | 7.61 | 6.01
50 | Nc1ncccc1-c1nc2ccc(-n3ccc(F)n3)nc2n1-c1ccc2c(c1)CC[C@@H]2NC(=O)c1ccc(F)c(F)c1 [Compound 347] | 7.63 | 6.08
51 | COc1cncc(C(=O)N[C@H]2CCc3cc(-n4c(-c5cccnc5N)nc5ccc(-n6cccn6)nc54)ccc32)n1 [Compound 348] | 7.24 | 5.59
52 | Nc1ncccc1-c1nc2ccc(-n3nccn3)nc2n1-c1ccc2c(c1)CC[C@@H]2n1cc(C2CC2)nn1 [Compound 352] | 6.85 | 5.37
